# Experiments:
# [1] = molecular target: Excitatory amino acid transporter 2 (Rattus norvegicus) (UniProt P31596); assay: Attenuation of the sodium-dependent uptake of [3H]D-aspartate into synaptosomes prepared from rat forebrain at 250 uM.; format: subcellular; details: Brain
# [2] = molecular target: Excitatory amino acid transporter 2 (Rattus norvegicus) (UniProt P31596); assay: Tested for the ability to attenuate the sodium-dependent uptake of [3H]D-aspartate (5 uM) into synaptosomes prepared from rat forebrain at 25 uM; format: subcellular; details: Brain
# [3] = The compound was tested for binding affinity towards Excitatory amino acid receptors of rat brain synaptosomes; IE means ineffective; format: subcellular
# Rattus norvegicus = species: Rattus norvegicus; assay: Tested for the competitive inhibitory activity against D-aspartate transport in rat synaptosomes; format: functional, Brain
# [4] = compound: O=C(O)[C@@H]1CN[C@@H](C(=O)O)C1; assay: Tested for the competitive inhibitory activity against L-glutamate transport in rat synaptosomes; format: subcellular; details: Brain
Molecule,Control [1] [%],Control [2] [%],other results
C=C(C)[C@H]1CN[C@H](C(=O)O)[C@H]1CC(=O)O,39,–,–
CCOCC1[C@H](C(=O)O)CN[C@H]1C(=O)O (stereo partly drawn),55,–,–
N[C@@H](CCC(=O)O)C(=O)O,–,40,–
O=C(O)CC1[C@H](C(=O)O)CN[C@H]1C(=O)O (stereo partly drawn),95,–,–
O=C(O)C[C@@H]1CN[C@H](C(=O)O)C1,74,–,–
O=C(O)C[C@H]1CCN[C@@H]1C(=O)O,74,–,–
"CC(C)[C@H]1CN[C@H](C(=O)O)[C@H]1CC(=O)O (single isomer, unassigned)",25,83,–
O=C(O)[C@@H]1CN[C@@H](C(=O)O)C1 (stereo in doubt; form 1) [listing 1 of 2 here],–,–,Ki [3]: Ineffective; Ki (Rattus norvegicus): 1300 nM
O=C(O)[C@@H]1CCN[C@H]1C(=O)O (stereo in doubt; form 1),81,–,–
O=C(O)[C@@H]1CN[C@@H](C(=O)O)C1 (stereo in doubt; form 1) [listing 2 of 2 here],0,18,–
O=C(O)[C@@H]1CN[C@H](C(=O)O)C1 (stereo in doubt; form 1),105,–,–
O=C(O)[C@@H]1CN[C@H]1C(=O)O (stereo in doubt; form 1),109,–,–
O=C(O)[C@H]1NCC[C@H]1C(=O)O (stereo in doubt; form 1),38,94,–
O=C(O)[C@H]1NC[C@H]1C(=O)O (stereo in doubt; form 1),53,96,–
O=C(O)[C@@H]1CCN[C@H]1C(=O)O (stereo in doubt; form 2),107,–,–
O=C(O)[C@@H]1CN[C@@H](C(=O)O)C1 (stereo in doubt; form 2),54,88,–
O=C(O)[C@@H]1CN[C@H](C(=O)O)C1 (stereo in doubt; form 2),36,82,–
O=C(O)[C@@H]1CN[C@H]1C(=O)O (stereo in doubt; form 2),100,–,–
O=C(O)[C@H]1NCC[C@H]1C(=O)O (stereo in doubt; form 2),108,–,–
O=C(O)[C@H]1NC[C@H]1C(=O)O (stereo in doubt; form 2),98,–,–
"Excitatory amino acid transporter 2 (Rattus norvegicus), P31596 (protein) MASTEGANNMPKQVEVRMHDSHLSSEEPKHRNLGMRMCDKLGKNLLLSLTVFGVILGAVCGGLLRLAAPIHPDVVMLIAFPGDILMRMLKMLILPLIISSLITGLSGLDAKASGRLGTRAMVYYMSTTIIAAVLGVILVLAIHPGNPKLKKQLGPGKKNDEVSSLDAFLDLIRNLFPENLVQACFQQIQTVTKKVLVAPPSEEANTTKAVISLLNETMNEAPEETKIVIKKGLEFKDGMNVLGLIGFFIAFGIAMGKMGEQAKLMVEFFNILNEIVMKLVIMIMWYSPLGIACLICGKIIAIKDLEVVARQLGMYMITVIVGLIIHGGIFLPLIYFVVTRKNPFSFFAGIFQAWITALGTASSAGTLPVTFRCLEDNLGIDKRVTRFVLPVGATINMDGTALYEAVAAIFIAQMNGVILDGGQIVTVSLTATLASIGAASIPSAGLVTMLLILTAVGLPTEDISLLVAVDWLLDRMRTSVNVVGDSFGAGIVYHLSKSELDTIDSQHRMHEDIEMTKTQSVYDDTKNHRESNSNQCVYAAHNSVVIDECKVTLAANGKSADCSVEEEPWKREK",–,–,Km [4]: 3 µM
